Laboratory results taken from PubChem BioAssay AID248 (DTP/NCI, 2004).
“And” between values parts separate entries of the source, which are not always exact repeats. Equal entries are not always repeated. Toxic doses and inconclusive results are not listed. Cut-off read from the data, not from the text of the source: active = T/C of 150% or more; inactive = T/C below 125%.

System: L1210 leukemia ip in BDF1 mice, survival T/C
Assay: NCI In Vivo Anticancer Drug Screen. Data for tumor model L1210 Leukemia (intraperitoneal) in B6D2F1 (BDF1) mice
Conditions: higher = longer survival
In short: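 Survival endpoint. Drug-treated group vs vehicle group, expressed as T divided by C. Tumor passaged by transplantation.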

Measured: T/C

CN(C)/N=N/c1nc[nH]c1C(N)=O
inactive: endpoint: mean survival time, dose: 3.12 mg/kg/injection, schedule: Q#A X Z (ip), vehicle: carboxymethylcellulose (CMC) 100 % of control | endpoint: mean survival time, dose: 3.3 mg/kg/injection, schedule: Q01DX009 (ip), vehicle: carboxymethylcellulose (CMC) 104 % of control | endpoint: mean survival time, dose: 6.2 mg/kg/injection, schedule: Q01DX Z (ip), vehicle: saline 106 % of control | endpoint: mean survival time, dose: 6.25 mg/kg/injection, schedule: Q01DX006 (iv), vehicle: carboxymethylcellulose (CMC) 107 % of control | endpoint: mean survival time, dose: 6.25 mg/kg/injection, schedule: Q01DX Z (im), vehicle: carboxymethylcellulose (CMC) 101 % of control | endpoint: mean survival time, dose: 6.25 mg/kg/injection, schedule: Q01DX Z (ip), vehicle: carboxymethylcellulose (CMC) 106 % of control | endpoint: mean survival time, dose: 6.5 mg/kg/injection, schedule: Q01DX009 (ip), vehicle: carboxymethylcellulose (CMC) 100 % of control | endpoint: mean survival time, dose: 7.5 mg/kg/injection, schedule: Q03HX032 (ip), vehicle: carboxymethylcellulose (CMC) 108 % of control | endpoint: mean survival time, dose: 9.0 mg/kg/injection, schedule: Q01DX001 (ip), vehicle: carboxymethylcellulose (CMC) 101 % of control | endpoint: mean survival time, dose: 11.4 mg/kg/injection, schedule: Q03HX032 (ip), vehicle: carboxymethylcellulose (CMC) 106 % of control | endpoint: mean survival time, dose: 12.5 mg/kg/injection, schedule: Q01DX Z (im), vehicle: carboxymethylcellulose (CMC) 106 % of control | endpoint: mean survival time, dose: 12.5 mg/kg/injection, schedule: Q#A X034 (ip), vehicle: carboxymethylcellulose (CMC) 105 % of control | endpoint: mean survival time, dose: 13.0 mg/kg/injection, schedule: Q01DX009 (ip), vehicle: carboxymethylcellulose (CMC) 100 % of control and 102 % of control | endpoint: mean survival time, dose: 15.0 mg/kg/injection, schedule: Q04DX002 (ip), vehicle: carboxymethylcellulose (CMC) 93 % of control and 110 % of control | endpoint: mean survival time, dose: 18.75 mg/kg/injection, schedule: Q01DX001 (ip), vehicle: carboxymethylcellulose (CMC) 107 % of control | endpoint: mean survival time, dose: 23.7 mg/kg/injection, schedule: Q01DX009 (ip), vehicle: carboxymethylcellulose (CMC) 108 % of control | endpoint: mean survival time, dose: 25.0 mg/kg/injection, schedule: Q01DX005 (ip), vehicle: water 110 % of control | endpoint: mean survival time, dose: 25.0 mg/kg/injection, schedule: Q01DX009 (ip), vehicle: Klucel (hydroxypropylcellulose) (HPC) 104 % of control | endpoint: mean survival time, dose: 25.0 mg/kg/injection, schedule: Q04DX003 (ip), vehicle: other 95 % of control and 103 % of control | endpoint: mean survival time, dose: 26.0 mg/kg/injection, schedule: Q03HX032 (ip), vehicle: carboxymethylcellulose (CMC) 111 % of control | endpoint: mean survival time, dose: 29.0 mg/kg/injection, schedule: Q04DX002 (ip), vehicle: carboxymethylcellulose (CMC) 100 % of control | endpoint: mean survival time, dose: 30.0 mg/kg/injection, schedule: Q## X008 (ip), vehicle: other 101 % of control | endpoint: mean survival time, dose: 31.0 mg/kg/injection, schedule: Q01DX001 (ip), vehicle: carboxymethylcellulose (CMC) 103 % of control | endpoint: mean survival time, dose: 32.0 mg/kg/injection, schedule: Q01DX005 (ip), vehicle: water 101 % of control | endpoint: mean survival time, dose: 39.0 mg/kg/injection, schedule: Q01DX009 (ip), vehicle: steriod suspending solution 108 % of control | endpoint: mean survival time, dose: 39.0 mg/kg/injection, schedule: Q01DX Z (ip), vehicle: steriod suspending solution 108 % of control | endpoint: mean survival time, dose: 50.0 mg/kg/injection, schedule: Q01DX001 (ip), vehicle: water 103 % of control | endpoint: mean survival time, dose: 50.0 mg/kg/injection, schedule: Q01DX Z (oral), vehicle: carboxymethylcellulose (CMC) 109 % of control | endpoint: mean survival time, dose: 50.0 mg/kg/injection, schedule: Q02DX009 (ip), vehicle: carboxymethylcellulose (CMC) 103 % of control | endpoint: mean survival time, dose: 50.0 mg/kg/injection, schedule: Q04DX003 (ip), vehicle: Klucel (hydroxypropylcellulose) (HPC) 110 % of control | endpoint: mean survival time, dose: 50.0 mg/kg/injection, schedule: Q04DX003 (ip), vehicle: other 104 % of control and 106 % of control | endpoint: mean survival time, dose: 50.0 mg/kg/injection, schedule: Q04DX003 (ip), vehicle: water 108 % of control | endpoint: mean survival time, dose: 50.0 mg/kg/injection, schedule: Q07DX003 (oral), vehicle: other 100 % of control | endpoint: mean survival time, dose: 50.0 mg/kg/injection, schedule: Q## X003 (ip), vehicle: carboxymethylcellulose (CMC) 105 % of control | endpoint: mean survival time, dose: 58.0 mg/kg/injection, schedule: Q04DX002 (ip), vehicle: carboxymethylcellulose (CMC) 103 % of control | endpoint: mean survival time, dose: 60.0 mg/kg/injection, schedule: Q## X008 (ip), vehicle: other 107 % of control | endpoint: mean survival time, dose: 62.0 mg/kg/injection, schedule: Q01DX001 (ip), vehicle: carboxymethylcellulose (CMC) 106 % of control | endpoint: mean survival time, dose: 65.0 mg/kg/injection, schedule: Q02DX009 (ip), vehicle: steriod suspending solution 106 % of control and 110 % of control | endpoint: mean survival time, dose: 66.0 mg/kg/injection, schedule: Q04DX003 (ip), vehicle: carboxymethylcellulose (CMC) 107 % of control | endpoint: mean survival time, dose: 100.0 mg/kg/injection, schedule: Q01DX001 (ip), vehicle: steriod suspending solution 110 % of control | endpoint: mean survival time, dose: 100.0 mg/kg/injection, schedule: Q01DX001 (ip), vehicle: water 105 % of control | endpoint: mean survival time, dose: 100.0 mg/kg/injection, schedule: Q04DX002 (ip), vehicle: Klucel (hydroxypropylcellulose) (HPC) 105 % of control | endpoint: mean survival time, dose: 100.0 mg/kg/injection, schedule: Q04DX003 (ip), vehicle: water 110 % of control | endpoint: mean survival time, dose: 100.0 mg/kg/injection, schedule: Q07DX003 (oral), vehicle: other 104 % of control | endpoint: mean survival time, dose: 100.0 mg/kg/injection, schedule: Q## X003 (ip), vehicle: carboxymethylcellulose (CMC) 109 % of control | endpoint: mean survival time, dose: 100.0 mg/kg/injection, schedule: Q## X005 (ip), vehicle: carboxymethylcellulose (CMC) 107 % of control | endpoint: mean survival time, dose: 100.0 mg/kg/injection, schedule: Q#A X Z (ip), vehicle: carboxymethylcellulose (CMC) 102 % of control | endpoint: mean survival time, dose: 108.0 mg/kg/injection, schedule: Q02DX009 (ip), vehicle: steriod suspending solution 105 % of control and 107 % of control | endpoint: mean survival time, dose: 125.0 mg/kg/injection, schedule: Q01DX001 (ip), vehicle: carboxymethylcellulose (CMC) 109 % of control | endpoint: mean survival time, dose: 168.0 mg/kg/injection, schedule: Q01DX001 (ip), vehicle: carboxymethylcellulose (CMC) 107 % of control | endpoint: mean survival time, dose: 180.0 mg/kg/injection, schedule: Q02DX009 (ip), vehicle: steriod suspending solution 101 % of control and 104 % of control | endpoint: mean survival time, dose: 200.0 mg/kg/injection, schedule: Q01DX001 (ip), vehicle: water 108 % of control | endpoint: mean survival time, dose: 200.0 mg/kg/injection, schedule: Q01DX006 (iv), vehicle: carboxymethylcellulose (CMC) 102 % of control | endpoint: mean survival time, dose: 264.0 mg/kg/injection, schedule: Q01DX001 (ip), vehicle: other 110 % of control | endpoint: mean survival time, dose: 300.0 mg/kg/injection, schedule: Q01DX009 (ip), vehicle: steriod suspending solution 108 % of control | endpoint: mean survival time, dose: 300.0 mg/kg/injection, schedule: Q01DX Z (ip), vehicle: steriod suspending solution 108 % of control | endpoint: mean survival time, dose: 300.0 mg/kg/injection, schedule: Q03DX Z (ip), vehicle: carboxymethylcellulose (CMC) 103 % of control | endpoint: mean survival time, dose: 336.0 mg/kg/injection, schedule: Q01DX001 (ip), vehicle: carboxymethylcellulose (CMC) 109 % of control | endpoint: mean survival time, dose: 400.0 mg/kg/injection, schedule: Q01DX009 (ip), vehicle: other 106 % of control and 108 % of control | endpoint: mean survival time, dose: 400.0 mg/kg/injection, schedule: Q01DX009 (ip), vehicle: water 102 % of control | endpoint: mean survival time, dose: 400.0 mg/kg/injection, schedule: Q01DX Z (sc), vehicle: carboxymethylcellulose (CMC) 108 % of control | endpoint: mean survival time, dose: 400.0 mg/kg/injection, schedule: Q## X009 (ip), vehicle: carboxymethylcellulose (CMC) 110 % of control | endpoint: mean survival time, dose: 800.0 mg/kg/injection, schedule: Q01DX Z (oral), vehicle: carboxymethylcellulose (CMC) 96 % of control | endpoint: median survival time, dose: 20.0 mg/kg/injection, schedule: Q01DX009 (ip), vehicle: Klucel (hydroxypropylcellulose) (HPC) 106 % of control | endpoint: median survival time, dose: 20.0 mg/kg/injection, schedule: Q01DX015 (ip), vehicle: Klucel (hydroxypropylcellulose) (HPC) 110 % of control | endpoint: median survival time, dose: 65.0 mg/kg/injection, schedule: Q01DX001 (ip), vehicle: steriod suspending solution 100 % of control | endpoint: median survival time, dose: 65.0 mg/kg/injection, schedule: Q01DX009 (ip), vehicle: Klucel (hydroxypropylcellulose) (HPC) 110 % of control | endpoint: median survival time, dose: 65.0 mg/kg/injection, schedule: Q04DX003 (ip), vehicle: steriod suspending solution 110 % of control | endpoint: median survival time, dose: 108.0 mg/kg/injection, schedule: Q01DX001 (ip), vehicle: steriod suspending solution 110 % of control | endpoint: median survival time, dose: 108.0 mg/kg/injection, schedule: Q01DX014 (ip), vehicle: Klucel (hydroxypropylcellulose) (HPC) 94 % of control | endpoint: median survival time, dose: 108.0 mg/kg/injection, schedule: Q04DX003 (ip), vehicle: steriod suspending solution 110 % of control | endpoint: median survival time, dose: 180.0 mg/kg/injection, schedule: Q01DX001 (ip), vehicle: steriod suspending solution 100 % of control | endpoint: median survival time, dose: 180.0 mg/kg/injection, schedule: Q01DX014 (ip), vehicle: Klucel (hydroxypropylcellulose) (HPC) 108 % of control | endpoint: median survival time, dose: 300.0 mg/kg/injection, schedule: Q01DX001 (ip), vehicle: steriod suspending solution 110 % of control | endpoint: median survival time, dose: 300.0 mg/kg/injection, schedule: Q01DX013 (ip), vehicle: Klucel (hydroxypropylcellulose) (HPC) 105 % of control and 107 % of control | endpoint: median survival time, dose: 300.0 mg/kg/injection, schedule: Q01DX014 (ip), vehicle: Klucel (hydroxypropylcellulose) (HPC) 101 % of control | endpoint: median survival time, dose: 400.0 mg/kg/injection, schedule: Q04DX003 (ip), vehicle: Klucel (hydroxypropylcellulose) (HPC) 110 % of control | endpoint: median survival time, dose: 500.0 mg/kg/injection, schedule: Q01DX001 (ip), vehicle: steriod suspending solution 110 % of control | endpoint: median survival time, dose: 500.0 mg/kg/injection, schedule: Q01DX013 (ip), vehicle: Klucel (hydroxypropylcellulose) (HPC) 105 % of control and 107 % of control | endpoint: median survival time, dose: 500.0 mg/kg/injection, schedule: Q01DX014 (ip), vehicle: Klucel (hydroxypropylcellulose) (HPC) 102 % of control | endpoint: median survival time, dose: 833.0 mg/kg/injection, schedule: Q01DX009 (ip), vehicle: Klucel (hydroxypropylcellulose) (HPC) 110 % of control | endpoint: median survival time, dose: 1600.0 mg/kg/injection, schedule: Q04DX003 (ip), vehicle: Klucel (hydroxypropylcellulose) (HPC) 95 % of control
